In ChEMBL document CHEMBL3046126, “Synthesis and Herbicidal Activity of New Oxazolidinedione Derivatives” (J Pestic Sci, 1999):

How the values were obtained:
Amaranthus viridis = experiment: Pre-emergence herbicidal activity against Amaranthus viridis assessed as phytotoxic weed control visual ratings at 500 g ai/ha measured after 14 days post treatment under upland field conditions; assay type: functional
Oryza sativa [1] = experiment: Pre-emergence phytotoxicity against Oryza sativa cv. Koshihikari (rice) assessed as phytotoxic crop injury visual ratings measured after 14 days post treatment; assay type: organism-based; conditions: in vivo, 336 h
[2] = Selectivity index, ratio of ED10 for Oryza sativa to ED90 for Echinochloa oryzicola by pre-emergence exposure method
Echinochloa crus-galli = experiment: Pre-emergence herbicidal activity against Echinochloa crus-galli (barnyard grass) assessed as phytotoxic weed control visual ratings at 500 g ai/ha measured after 14 days post treatment under upland field conditions; assay type: functional
Cyperus difformis [3] = experiment: Pre-emergence herbicidal activity against Cyperus difformis assessed as phytotoxic weed control visual ratings at 25 g ai/ha measured after 14 days post treatment under flooded conditions; assay type: functional
Digitaria ciliaris = experiment: Pre-emergence herbicidal activity against Digitaria ciliaris assessed as phytotoxic weed control visual ratings at 500 g ai/ha measured after 14 days post treatment under upland field conditions; assay type: functional
Echinochloa oryzicola [4] = experiment: Post-emergence herbicidal activity against Echinochloa oryzicola assessed as phytotoxic weed control visual ratings measured after 14 days post treatment; assay type: functional
Rotala indica [5] = experiment: Pre-emergence herbicidal activity against Rotala indica assessed as phytotoxic weed control visual ratings at 25 g ai/ha measured after 14 days post treatment under flooded conditions; assay type: functional
Oryza sativa [6] = experiment: Pre-emergence phytotoxicity against Oryza sativa cv. Koshihikari (rice) assessed as phytotoxic crop injury visual ratings at 25 g ai/ha measured after 14 days post treatment under flooded conditions; assay type: organism-based; conditions: in vivo, other, 336 h
[7] = test system: Schoenoplectiella juncoides; experiment: Pre-emergence herbicidal activity against Schoenoplectiella juncoides assessed as phytotoxic weed control visual ratings at 25 g ai/ha measured after 14 days post treatment under flooded conditions; assay type: functional
Echinochloa oryzicola [8] = experiment: Pre-emergence herbicidal activity against Echinochloa oryzicola assessed as phytotoxic weed control visual ratings measured after 14 days post treatment; assay type: functional
Lindernia procumbens [9] = experiment: Pre-emergence herbicidal activity against Lindernia procumbens assessed as phytotoxic weed control visual ratings at 25 g ai/ha measured after 14 days post treatment under flooded conditions; assay type: functional
Elatine triandra [10] = experiment: Pre-emergence herbicidal activity against Elatine triandra assessed as phytotoxic weed control visual ratings at 25 g ai/ha measured after 14 days post treatment under flooded conditions; assay type: functional
Zea mays = experiment: Pre-emergence phytotoxicity against Zea mays (maize) assessed as phytotoxic crop injury visual ratings at 500 g ai/ha measured after 14 days post treatment under upland field conditions; assay type: organism-based; conditions: in vivo, other, 336 h
Pontederia vaginalis [11] = experiment: Pre-emergence herbicidal activity against Monochoria vaginalis assessed as phytotoxic weed control visual ratings at 25 g ai/ha measured after 14 days post treatment under flooded conditions; assay type: functional
Echinochloa oryzicola [12] = experiment: Pre-emergence herbicidal activity against Echinochloa oryzicola assessed as phytotoxic weed control visual ratings at 25 g ai/ha measured after 14 days post treatment under flooded conditions; assay type: functional
Oryza sativa [13] = experiment: Post-emergence phytotoxicity against Oryza sativa cv. Koshihikari (rice) assessed as phytotoxic crop injury visual ratings measured after 14 days post treatment; assay type: organism-based; conditions: in vivo, 336 h
[14] = Selectivity index, ratio of ED10 for Oryza sativa to ED90 for Echinochloa oryzicola by post-emergence exposure method
Chenopodium album = experiment: Pre-emergence herbicidal activity against Chenopodium album assessed as phytotoxic weed control visual ratings at 500 g ai/ha measured after 14 days post treatment under upland field conditions; assay type: functional
[15] = test system: Schoenoplectiella juncoides; experiment: Pre-emergence herbicidal activity against Schoenoplectiella juncoides assessed as phytotoxic weed control visual ratings at 1.25 kg ai/ha measured after 14 days post treatment under flooded conditions; assay type: functional
Lindernia procumbens [16] = experiment: Pre-emergence herbicidal activity against Lindernia procumbens assessed as phytotoxic weed control visual ratings at 1.25 kg ai/ha measured after 14 days post treatment under flooded conditions; assay type: functional
Pontederia vaginalis [17] = experiment: Pre-emergence herbicidal activity against Monochoria vaginalis assessed as phytotoxic weed control visual ratings at 1.25 kg ai/ha measured after 14 days post treatment under flooded conditions; assay type: functional
Elatine triandra [18] = experiment: Pre-emergence herbicidal activity against Elatine triandra assessed as phytotoxic weed control visual ratings at 1.25 kg ai/ha measured after 14 days post treatment under flooded conditions; assay type: functional
Cyperus difformis [19] = experiment: Pre-emergence herbicidal activity against Cyperus difformis assessed as phytotoxic weed control visual ratings at 1.25 kg ai/ha measured after 14 days post treatment under flooded conditions; assay type: functional
Oryza sativa [20] = experiment: Pre-emergence phytotoxicity against Oryza sativa cv. Koshihikari (rice) assessed as phytotoxic crop injury visual ratings at 1.25 kg ai/ha measured after 14 days post treatment under flooded conditions; assay type: organism-based; conditions: in vivo, other, 336 h
Echinochloa oryzicola [21] = experiment: Pre-emergence herbicidal activity against Echinochloa oryzicola assessed as phytotoxic weed control visual ratings at 1.25 kg ai/ha measured after 14 days post treatment under flooded conditions; assay type: functional
Rotala indica [22] = experiment: Pre-emergence herbicidal activity against Rotala indica assessed as phytotoxic weed control visual ratings at 1.25 kg ai/ha measured after 14 days post treatment under flooded conditions; assay type: functional
[23] = test system: Schoenoplectiella juncoides; experiment: Pre-emergence herbicidal activity against Schoenoplectiella juncoides assessed as phytotoxic weed control visual ratings at 2.5 kg ai/ha measured after 14 days post treatment under flooded conditions; assay type: functional
Cyperus difformis [24] = experiment: Pre-emergence herbicidal activity against Cyperus difformis assessed as phytotoxic weed control visual ratings at 2.5 kg ai/ha measured after 14 days post treatment under flooded conditions; assay type: functional
Oryza sativa [25] = experiment: Pre-emergence phytotoxicity against Oryza sativa cv. Koshihikari (rice) assessed as phytotoxic crop injury visual ratings at 2.5 kg ai/ha measured after 14 days post treatment under flooded conditions; assay type: organism-based; conditions: in vivo, other, 336 h
Echinochloa oryzicola [26] = experiment: Pre-emergence herbicidal activity against Echinochloa oryzicola assessed as phytotoxic weed control visual ratings at 2.5 kg ai/ha measured after 14 days post treatment under flooded conditions; assay type: functional
Pontederia vaginalis [27] = experiment: Pre-emergence herbicidal activity against Monochoria vaginalis assessed as phytotoxic weed control visual ratings at 2.5 kg ai/ha measured after 14 days post treatment under flooded conditions; assay type: functional
Elatine triandra [28] = experiment: Pre-emergence herbicidal activity against Elatine triandra assessed as phytotoxic weed control visual ratings at 2.5 kg ai/ha measured after 14 days post treatment under flooded conditions; assay type: functional
Lindernia procumbens [29] = experiment: Pre-emergence herbicidal activity against Lindernia procumbens assessed as phytotoxic weed control visual ratings at 2.5 kg ai/ha measured after 14 days post treatment under flooded conditions; assay type: functional
Rotala indica [30] = experiment: Pre-emergence herbicidal activity against Rotala indica assessed as phytotoxic weed control visual ratings at 2.5 kg ai/ha measured after 14 days post treatment under flooded conditions; assay type: functional

SMILES | Phytotoxicity (Amaranthus viridis) | ED10 (Oryza sativa [1]) | Selectivity Index [2] | Phytotoxicity (Echinochloa crus-galli) | Phytotoxicity (Cyperus difformis [3]) | Phytotoxicity (Digitaria ciliaris) | ED90 (Echinochloa oryzicola [4]) | Phytotoxicity (Rotala indica [5]) | Phytotoxicity (Oryza sativa [6]) | Phytotoxicity [7] | ED90 (Echinochloa oryzicola [8]) | Phytotoxicity (Lindernia procumbens [9]) | Phytotoxicity (Elatine triandra [10]) | Phytotoxicity (Zea mays) | Phytotoxicity (Pontederia vaginalis [11]) | Phytotoxicity (Echinochloa oryzicola [12]) | ED10 (Oryza sativa [13]) | Selectivity Index [14] | Phytotoxicity (Chenopodium album) | Phytotoxicity [15] | also measured
C#CCSc1cc(N2C(=O)OC(=C(C)C)C2=O)c(F)cc1Cl | 100% | 50 gAi/ha | 4 | 50% | 100% | 30% | 100 gAi/ha | 100% | 0% | 100% | 12.5 gAi/ha | 100% | 100% | 0% | 100% | 100% | 200 gAi/ha | 2 | 100% |  | 
C=CCOc1cc(N2C(=O)OC(=C(C)C)C2=O)c(F)cc1Cl | 80% | 50 gAi/ha | 1 | 30% | 100% | 90% | 100 gAi/ha | 100% | 0% | 90% | 50 gAi/ha | 100% | 100% | 10% | 100% | 80% | 100 gAi/ha | 1 | 70% |  | 
CC(C)=C1OC(=O)N(c2cc(OC3CCCCC3)c(Cl)cc2F)C1=O | 30% | 200 gAi/ha | 8 | 10% | 100% | 30% | 25 gAi/ha | 100% | 0% | 80% | 25 gAi/ha | 100% | 100% | 10% | 100% | 100% | 200 gAi/ha | 8 | 20% |  | 
CC/C(C)=C1/OC(=O)N(c2ccc(F)cc2)C1=O |  |  |  |  |  |  |  |  |  |  |  |  |  |  |  |  |  |  |  | 60% | Phytotoxicity (Lindernia procumbens [16]): 100%; Phytotoxicity (Pontederia vaginalis [17]): 100%; Phytotoxicity (Elatine triandra [18]): 100%; Phytotoxicity (Cyperus difformis [19]): 100%; Phytotoxicity (Oryza sativa [20]): 0%; Phytotoxicity (Echinochloa oryzicola [21]): 10%; Phytotoxicity (Rotala indica [22]): 100%
C=C(C)C1(C)OC(=O)N(c2cc(Cl)cc(Cl)c2)C1=O (configuration not stated) |  |  |  |  |  |  |  |  |  |  |  |  |  |  |  |  |  |  |  |  | Phytotoxicity [23]: 20%; Phytotoxicity (Cyperus difformis [24]): 30%; Phytotoxicity (Oryza sativa [25]): 0%; Phytotoxicity (Echinochloa oryzicola [26]): 80%; Phytotoxicity (Pontederia vaginalis [27]): 30%; Phytotoxicity (Elatine triandra [28]): 60%; Phytotoxicity (Lindernia procumbens [29]): 60%; Phytotoxicity (Rotala indica [30]): 60%
CC(C)=C1OC(=O)N(c2ccc(F)cc2)C1=O |  |  |  |  |  |  |  |  |  |  |  |  |  |  |  |  |  |  |  | 0% | Phytotoxicity (Lindernia procumbens [16]): 40%; Phytotoxicity (Pontederia vaginalis [17]): 40%; Phytotoxicity (Elatine triandra [18]): 40%; Phytotoxicity (Cyperus difformis [19]): 100%; Phytotoxicity (Oryza sativa [20]): 0%; Phytotoxicity (Echinochloa oryzicola [21]): 10%; Phytotoxicity (Rotala indica [22]): 40%
CC(C)=C1OC(=O)N(c2c(Cl)cc(Cl)cc2Cl)C1=O |  |  |  |  |  |  |  |  |  |  |  |  |  |  |  |  |  |  |  |  | Phytotoxicity [23]: 20%; Phytotoxicity (Cyperus difformis [24]): 100%; Phytotoxicity (Oryza sativa [25]): 0%; Phytotoxicity (Echinochloa oryzicola [26]): 30%; Phytotoxicity (Pontederia vaginalis [27]): 100%; Phytotoxicity (Elatine triandra [28]): 100%; Phytotoxicity (Lindernia procumbens [29]): 100%; Phytotoxicity (Rotala indica [30]): 100%
CCCCCC/C(C)=C1/OC(=O)N(c2ccc(Cl)cc2)C1=O |  |  |  |  |  |  |  |  |  |  |  |  |  |  |  |  |  |  |  | 10% | Phytotoxicity (Lindernia procumbens [16]): 4%; Phytotoxicity (Pontederia vaginalis [17]): 50%; Phytotoxicity (Elatine triandra [18]): 4%; Phytotoxicity (Cyperus difformis [19]): 80%; Phytotoxicity (Oryza sativa [20]): 0%; Phytotoxicity (Echinochloa oryzicola [21]): 10%; Phytotoxicity (Rotala indica [22]): 4%
